From PubChem BioAssay (NCI)
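Method: 48-hour compound exposure of cells in 96-well plates, five concentrations, linear interpolation of endpoints. TGI: concentration producing complete growth inhibition.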

Experiments:
Assay in all cases: NCI tumour cell line growth inhibition, 48 h
OVCAR-8 ovarian = tested on: OVCAR-8 ovarian
HCC-2998 colon = tested on: HCC-2998 colon
M14 melanoma = tested on: M14 melanoma
TK-10 renal = tested on: TK-10 renal
IGROV1 ovarian = tested on: IGROV1 ovarian
BT-549 breast = tested on: BT-549 breast
HOP-62 NSCLC = tested on: HOP-62 NSCLC
SK-MEL-5 melanoma = tested on: SK-MEL-5 melanoma
ACHN renal = tested on: ACHN renal
MCF7 breast = tested on: MCF7 breast
NCI-H23 lung = tested on: NCI-H23 lung
OVCAR-5 ovarian = tested on: OVCAR-5 ovarian
NCI/ADR-RES ovarian = tested on: NCI/ADR-RES ovarian
SNB-75 CNS = tested on: SNB-75 CNS
OVCAR-4 ovarian = tested on: OVCAR-4 ovarian
SR leukemia = tested on: SR leukemia
KM12 colon = tested on: KM12 colon
MALME-3M melanoma = tested on: MALME-3M melanoma
786-0 renal = tested on: 786-0 renal
MDA-MB-435 = tested on: MDA-MB-435
NCI-H460 lung = tested on: NCI-H460 lung
HL-60(TB) leukemia = tested on: HL-60(TB) leukemia
SF-268 CNS = tested on: SF-268 CNS
MDA-MB-231 breast = tested on: MDA-MB-231 breast
A498 renal = tested on: A498 renal
HCT-116 colon = tested on: HCT-116 colon
NCI-H522 lung = tested on: NCI-H522 lung
RXF 393 renal = tested on: RXF 393 renal
SK-MEL-28 melanoma = tested on: SK-MEL-28 melanoma
K-562 leukemia = tested on: K-562 leukemia
SK-MEL-2 melanoma = tested on: SK-MEL-2 melanoma
MOLT-4 leukemia = tested on: MOLT-4 leukemia
SNB-19 CNS = tested on: SNB-19 CNS
MDA-N = tested on: MDA-N
CAKI-1 renal = tested on: CAKI-1 renal
OVCAR-3 ovarian = tested on: OVCAR-3 ovarian
DU-145 prostate = tested on: DU-145 prostate
UACC-62 melanoma = tested on: UACC-62 melanoma
HCT-15 colon = tested on: HCT-15 colon
NCI-H226 lung = tested on: NCI-H226 lung
CCRF-CEM leukemia = tested on: CCRF-CEM leukemia
COLO 205 colon = tested on: COLO 205 colon
UO-31 renal = tested on: UO-31 renal
SF-539 CNS = tested on: SF-539 CNS
SF-295 CNS = tested on: SF-295 CNS
UACC-257 melanoma = tested on: UACC-257 melanoma
LOX IMVI melanoma = tested on: LOX IMVI melanoma
A549 NSCLC = tested on: A549 NSCLC
T-47D breast = tested on: T-47D breast
SW-620 colon = tested on: SW-620 colon
EKVX NSCLC = tested on: EKVX NSCLC
HS 578T breast = tested on: HS 578T breast
U251 CNS = tested on: U251 CNS
SN12C renal = tested on: SN12C renal
RPMI-8226 leukemia = tested on: RPMI-8226 leukemia
SK-OV-3 ovarian = tested on: SK-OV-3 ovarian
PC-3 prostate = tested on: PC-3 prostate
HOP-92 NSCLC = tested on: HOP-92 NSCLC
HT29 colon = tested on: HT29 colon

CCOC(=O)c1cc(Br)c(-c2onc(C)c2Br)n1C
TGI (OVCAR-8 ovarian): > 100 µM | TGI (HCC-2998 colon): > 100 µM | TGI (M14 melanoma): > 100 µM | TGI (TK-10 renal): > 100 µM | TGI (IGROV1 ovarian): > 100 µM | TGI (BT-549 breast): > 100 µM | TGI (HOP-62 NSCLC): > 100 µM | TGI (SK-MEL-5 melanoma): 32.4 µM | TGI (ACHN renal): > 100 µM | TGI (MCF7 breast): 77.5 µM | TGI (NCI-H23 lung): > 100 µM | TGI (OVCAR-5 ovarian): 68.8 µM | TGI (NCI/ADR-RES ovarian): > 100 µM | TGI (SNB-75 CNS): 53 µM | TGI (OVCAR-4 ovarian): > 100 µM | TGI (SR leukemia): 92.9 µM | TGI (KM12 colon): 69.5 µM | TGI (MALME-3M melanoma): > 100 µM | TGI (786-0 renal): 86.1 µM | TGI (MDA-MB-435): > 100 µM | TGI (NCI-H460 lung): > 100 µM | TGI (HL-60(TB) leukemia): 27.5 µM | TGI (SF-268 CNS): > 100 µM | TGI (MDA-MB-231 breast): > 100 µM | TGI (A498 renal): > 100 µM | TGI (HCT-116 colon): 41.6 µM | TGI (NCI-H522 lung): 72.7 µM | TGI (RXF 393 renal): 28.6 µM | TGI (SK-MEL-28 melanoma): > 100 µM | TGI (K-562 leukemia): > 100 µM | TGI (SK-MEL-2 melanoma): > 100 µM | TGI (MOLT-4 leukemia): 44.3 µM | TGI (SNB-19 CNS): > 100 µM | TGI (MDA-N): > 100 µM | TGI (CAKI-1 renal): 45.4 µM | TGI (OVCAR-3 ovarian): > 100 µM | TGI (DU-145 prostate): > 100 µM | TGI (UACC-62 melanoma): > 100 µM | TGI (HCT-15 colon): > 100 µM | TGI (NCI-H226 lung): > 100 µM | TGI (CCRF-CEM leukemia): > 100 µM | TGI (COLO 205 colon): 85.7 µM | TGI (UO-31 renal): > 100 µM | TGI (SF-539 CNS): > 100 µM | TGI (SF-295 CNS): 76.2 µM | TGI (UACC-257 melanoma): > 100 µM | TGI (LOX IMVI melanoma): > 100 µM | TGI (A549 NSCLC): 64.2 µM | TGI (T-47D breast): 57.7 µM | TGI (SW-620 colon): > 100 µM | TGI (EKVX NSCLC): 85.6 µM | TGI (HS 578T breast): > 100 µM | TGI (U251 CNS): > 100 µM | TGI (SN12C renal): 56.8 µM | TGI (RPMI-8226 leukemia): > 100 µM | TGI (SK-OV-3 ovarian): 59.8 µM | TGI (PC-3 prostate): > 100 µM

N#CSc1ccc(S(N)(=O)=O)cc1
TGI (OVCAR-8 ovarian): > 100 µM | TGI (HCC-2998 colon): > 100 µM | TGI (HOP-92 NSCLC): > 100 µM | TGI (M14 melanoma): 45.5 µM | TGI (TK-10 renal): > 100 µM | TGI (IGROV1 ovarian): > 100 µM | TGI (BT-549 breast): > 100 µM | TGI (HOP-62 NSCLC): > 100 µM | TGI (SK-MEL-5 melanoma): > 100 µM | TGI (ACHN renal): > 100 µM | TGI (HT29 colon): > 100 µM | TGI (MCF7 breast): > 100 µM | TGI (NCI-H23 lung): > 100 µM | TGI (OVCAR-5 ovarian): > 100 µM | TGI (NCI/ADR-RES ovarian): > 100 µM | TGI (SNB-75 CNS): > 100 µM | TGI (OVCAR-4 ovarian): 93.1 µM | TGI (KM12 colon): > 100 µM | TGI (MALME-3M melanoma): > 100 µM | TGI (786-0 renal): 65.2 µM | TGI (MDA-MB-435): > 100 µM | TGI (NCI-H460 lung): > 100 µM | TGI (HL-60(TB) leukemia): 37.1 µM | TGI (SF-268 CNS): > 100 µM | TGI (MDA-MB-231 breast): > 100 µM | TGI (A498 renal): > 100 µM | TGI (HCT-116 colon): > 100 µM | TGI (NCI-H522 lung): 26.5 µM | TGI (RXF 393 renal): 70.6 µM | TGI (SK-MEL-28 melanoma): > 100 µM | TGI (K-562 leukemia): > 100 µM | TGI (SK-MEL-2 melanoma): > 100 µM | TGI (MOLT-4 leukemia): 29.6 µM | TGI (SNB-19 CNS): > 100 µM | TGI (MDA-N): > 100 µM | TGI (CAKI-1 renal): > 100 µM | TGI (OVCAR-3 ovarian): > 100 µM | TGI (DU-145 prostate): > 100 µM | TGI (UACC-62 melanoma): > 100 µM | TGI (HCT-15 colon): > 100 µM | TGI (NCI-H226 lung): > 100 µM | TGI (CCRF-CEM leukemia): 88.7 µM | TGI (COLO 205 colon): > 100 µM | TGI (UO-31 renal): 35.2 µM | TGI (SF-539 CNS): 68 µM | TGI (SF-295 CNS): > 100 µM | TGI (UACC-257 melanoma): > 100 µM | TGI (LOX IMVI melanoma): > 100 µM | TGI (A549 NSCLC): > 100 µM | TGI (T-47D breast): > 100 µM | TGI (SW-620 colon): 98.9 µM | TGI (EKVX NSCLC): > 100 µM | TGI (HS 578T breast): > 100 µM | TGI (U251 CNS): 38.1 µM | TGI (SN12C renal): > 100 µM | TGI (RPMI-8226 leukemia): 61.5 µM | TGI (SK-OV-3 ovarian): > 100 µM | TGI (PC-3 prostate): > 100 µM
